What was measured:
[1] = system: second amniotic fluid-derived cell line; assay: Two sequential low dose trichostatin A treatments, gene expression by RT-PCR (Example 7); type: cell-based, human; conditions: 0.5 μM, after 72 hours, remainder of the experiment
[2] = system: early passage (P5) pancreatic-derived stromal cell line; assay: as above; type: cell-based, human; conditions: for HNF (HNF-3 beta) gene expression / Insulin gene expression / Pdx-1 gene expression / glucagon gene expression: 1.25 μM 0-24 h + 96-120 h; for HNF-3 beta RT-PCR detection cycle / Pdx-1 RT-PCR detection cycle / glucagon RT-PCR detection cycle: 1.25 μM
Protocol: Several cell lines obtained from different amniotic fluid specimens (see Example 14) and pancreas donors (see Example 13) were tested with similar results. Two lines at similar passage number but derived from different amniotic fluid specimens are shown in Table VII-A and Table VII-B for this example. One of these cell lines was also used in examples 2 and 4 above. In addition, this example also contains comparison data in Table VII-C and Table VII-D for a single pancreatic-derived stromal line grown to early and late passage number.
Amniotic fluid derived cells or pancreatic-derived stromal cells were seeded into 24-well tissue culture plates at a density of 5000/cm^2 and cultured in AMNIOMAX (Invitrogen) or DMEM with 10% FBS respectively under standard cell culture conditions until confluent. After the cells reached confluency, amniotic fluid derived cells were treated at time 0 hours with a dose of 500 nM trichostatin A, and pancreatic-derived stromal cells were treated with a dose of 1.25 μM trichostatin A solubilized in DMSO and medium. At time 24 hours, cell cultures underwent a complete medium change to remove all traces of trichostatin A. At time 96 hours, cell cultures were re-fed with fresh medium and received a second dose of trichostatin A at the same concentration as used previously. […]
Samples were taken daily for RT-PCR at the times indicated in Table VII-A to D. The culture medium was removed, and samples were rinsed in PBS then collected in RLT with β-mercaptoethanol (Qiagen). RNA was purified using the RNeasy Mini Kit (Qiagen) and RNA quantity and quality were determined using a spectrophotometer. cDNA was made using the iScript cDNA synthesis kit (BioRad).
Samples of 20 ng cDNA were used in each reaction to determine the expression levels of the following genes in amniotic fluid-derived cells: Gata1, HNF-3 beta, Pdx-1, insulin, and Sox17. Similarly, samples of 20 ng cDNA were used in each reaction to determine the expression level of the following genes in pancreatic-derived cells: glucagon, HNF-3 beta, insulin and Pdx-1. Real-Time PCR was performed on the Applied Biosystems 7500, and data was analyzed using the accompanying software according to the methods described in Example 15.
Real-time PCR amplifcation and quantitative analysis. Unless otherwise stated, all reagents were purchased from Applied Biosystems. Real-time PCR reactions were performed using the ABI PRISM™ 7500 Sequence Detection System. TAQMAN™ FAST UNIVERSAL PCR MASTER MIX™ (ABI, CA) was used with 20 ng of reverse transcribed RNA in a total reaction volume of 20 μl. Each cDNA sample was run in duplicate to allow correction of pipetting errors. Primers and FAM-labeled TAQMAN™ probes were used at concentrations of 200 nM. The level of expression for each target gene was normalized using the pre-developed Applied Biosystem's human glyceraldehyde-3-phosphate dehydrogenase (GAPDH) endogenous control kit. Primers and probes were designed using either ABI PRISM PRIMER EXPRESS™ software or a pre-developed ABI gene analysis kit. For each gene, either one of the primers or the probe were designed to be exon-boundary spanning. This eliminated the possibility of the primers/probe binding to any genomic DNA present. The primer and probe sets are listed as follows: Pdx-1 (Hs00426216), Insulin (Hs00355773), glucagon (Hs00174967), and FoxA2 (HNF 3-beta) (Hs00232764). The remaining primers were designed using the PRIMERS program (ABI, CA). After an initial 95° C. incubation for 20 sec, samples were cycled 40 times in two stages: a denaturation step at 95° C. for 3 sec, followed by an annealing/extension step at 60° C. for 30 sec.
For each primer/probe set, a cycle time value was determined as the cycle number at which the fluorescence intensity of the PCR reaction reached a specific value in the middle of the exponential region of amplification. […]

[3] = 24 hours following the addition

Q: Which “HNF-3 beta RT-PCR detection cycle” value [1] does the source give for `CC(/C=C/C(=O)NO)=C\[C@@H](C)C(=O)c1ccc(N(C)C)cc1` [trichostatin A] here?
A: Its value is 37 cycles.

Q: What about the “HNF (HNF-3 beta) gene expression” value ([2]; 24 hrs) of the same molecule?
A: The value was “+++ (detectable at less than 35 cycles by RT-PCR with SE less than 0.9)”.

Q: What about the Insulin gene expression ([2]; 24 hrs) of the same molecule?
A: Its Insulin gene expression is “nd (not detectable at >40 cycles by RT-PCR)”.

Q: And the Pdx-1 gene expression ([2]; 24 hrs)?
A: The Pdx-1 gene expression was “+++ (detectable at less than 35 cycles by RT-PCR with SE less than 0.9)”.

Q: And the glucagon gene expression ([2]; 24 hrs)?
A: The glucagon gene expression was “+++ (detectable at less than 35 cycles by RT-PCR with SE less than 0.9)”.

Q: And the “HNF (HNF-3 beta) gene expression” value ([2]; 48 hrs)?
A: Its value is “nd (not detectable at >40 cycles by RT-PCR)”.

Q: And the Insulin gene expression ([2]; 48 hrs)?
A: Its Insulin gene expression is “nd (not detectable at >40 cycles by RT-PCR)”.

Q: What about the Pdx-1 gene expression ([2]; 48 hrs) of the same molecule?
A: The Pdx-1 gene expression was “nd (not detectable at >40 cycles by RT-PCR)”.

Q: And the glucagon gene expression ([2]; 48 hrs)?
A: The glucagon gene expression was “+ (detectable between 35 and 40 cycles by RT-PCR)”.

Q: What about the “HNF (HNF-3 beta) gene expression” value ([2]; 72 hrs) of the same molecule?
A: The value was “nd (not detectable at >40 cycles by RT-PCR)”.

Q: What about the Insulin gene expression ([2]; 72 hrs) of the same molecule?
A: The Insulin gene expression was “nd (not detectable at >40 cycles by RT-PCR)”.

Q: And the Pdx-1 gene expression ([2]; 72 hrs)?
A: The Pdx-1 gene expression was “nd (not detectable at >40 cycles by RT-PCR)”.

Q: What about the glucagon gene expression ([2]; 72 hrs) of the same molecule?
A: Its glucagon gene expression is “nd (not detectable at >40 cycles by RT-PCR)”.

Q: And the “HNF (HNF-3 beta) gene expression” value ([2]; 96 hrs)?
A: The value was “nd (not detectable at >40 cycles by RT-PCR)”.

Q: What about the Insulin gene expression ([2]; 96 hrs) of the same molecule?
A: The Insulin gene expression was “nd (not detectable at >40 cycles by RT-PCR)”.

Q: What about the Pdx-1 gene expression ([2]; 96 hrs) of the same molecule?
A: The Pdx-1 gene expression was “nd (not detectable at >40 cycles by RT-PCR)”.

Q: What about the glucagon gene expression ([2]; 96 hrs) of the same molecule?
A: Its glucagon gene expression is “nd (not detectable at >40 cycles by RT-PCR)”.

Q: And the “HNF (HNF-3 beta) gene expression” value ([2]; 120 hrs)?
A: The value was “+++ (detectable at less than 35 cycles by RT-PCR with SE less than 0.9)”.

Q: And the Insulin gene expression ([2]; 120 hrs)?
A: The Insulin gene expression was “nd (not detectable at >40 cycles by RT-PCR)”.

Q: What about the Pdx-1 gene expression ([2]; 120 hrs) of the same molecule?
A: Its Pdx-1 gene expression is “+++ (detectable at less than 35 cycles by RT-PCR with SE less than 0.9)”.

Q: What about the glucagon gene expression ([2]; 120 hrs) of the same molecule?
A: The glucagon gene expression was “+ (detectable between 35 and 40 cycles by RT-PCR)”.

Q: And the “HNF (HNF-3 beta) gene expression” value ([2]; 144 hrs)?
A: The value was “nd (not detectable at >40 cycles by RT-PCR)”.

Q: What about the Insulin gene expression ([2]; 144 hrs) of the same molecule?
A: Its Insulin gene expression is “nd (not detectable at >40 cycles by RT-PCR)”.

Q: What about the Pdx-1 gene expression ([2]; 144 hrs) of the same molecule?
A: The Pdx-1 gene expression was “nd (not detectable at >40 cycles by RT-PCR)”.

Q: What about the glucagon gene expression ([2]; 144 hrs) of the same molecule?
A: Its glucagon gene expression is “+ (detectable between 35 and 40 cycles by RT-PCR)”.

Q: And the “HNF-3 beta RT-PCR detection cycle” value [2, 3]?
A: The value was 34 cycles.

Q: What about the “Pdx-1 RT-PCR detection cycle” value [2, 3] of the same molecule?
A: The value was 34 cycles.

Q: And the “HNF-3 beta RT-PCR detection cycle” value ([2]; after the second addition)?
A: Its value is 33 cycles.

Q: What about the “Pdx-1 RT-PCR detection cycle” value ([2]; after the second addition) of the same molecule?
A: Its value is 33 cycles.

Q: And the “glucagon RT-PCR detection cycle” value ([2]; after the second treatment cycle)?
A: Its value is 37 cycles.

Q: What about the “glucagon RT-PCR detection cycle” value ([2]; first 48 hours after addition) of the same molecule?
A: Its value is 34 cycles.
